The text below walks through data of patent US20090181369A1, “Methods for the Treatment of Disease” (priority 2005, published 2009).

Data set [1] concerns BaF3 cells expressing FNTB C95R. Nature of the data set: soft agar colony assay (cellular IC50). The settings on record: Mus musculus, BaF3, 336 h, read-out: Cellular IC50.
The subject of data set [2] is BaF3 cells expressing FNTB G241E. Nature of the data set: cells. The following applies: Mus musculus, BaF3, 336 h, read-out: Cellular IC50.
For data set [3], the system named is BaF3 cells expressing FNTB W106R. Nature of the data set: soft agar colony assay (cellular IC50). The settings on record: Mus musculus, BaF3, 336 h, read-out: Cellular IC50.
Data set [4] has as its system BaF3 cells expressing wild-type FNTB. Nature of the data set: cells. The following applies: Mus musculus, BaF3, 336 h, read-out: Cellular IC50.
The conditions of data set [5]: patients, reported (ref. 8); cited from earlier work.
Another data set concerns the target FTase, β subunit W106R (Homo sapiens, UniProt P49356, W106R). The following applies: all drug concentrations.
The subject of data set [6] is BaF3 cells expressing FNTB P152S. Nature of the data set: cells. The following applies: Mus musculus, BaF3, 336 h, read-out: Cellular IC50.
For data set [7], the system named is chronic myeloid leukemia (CML). The settings on record: chronic phase CML patients; cited from earlier work.

Regarding `NC(=O)N1CCC(CC(=O)N2CCC([C@H]3c4ncc(Br)cc4CCc4cc(Cl)cc(Br)c43)CC2)CC1` [Lonafarnib, (+)-4-[2-[4-(8-Chloro-3,10-dibromo-6,11-dihydro-5H-benzo[5,6]cyclohepta[1,2-b]-pyridin-11(R)-yl)-1-piperidinyl]-2-oxo-ethyl]-1-piperidinecarboxamide], the IC50 was 1800 nM in data set [1]; 600 nM in data set [2]; greater than 10000 nM in data set [3]; 90 nM in data set [4]; 300 nM in data set [6]. Also, the trough plasma concentrations in data set [5] was 1.5 µM. Moreover, the “HDJ2 farnesylation by western blot” value at FTase, β subunit W106R is reported as 100%.
As to `Cc1ccc(NC(=O)c2ccc(CN3CCN(C)CC3)cc2)cc1Nc1nccc(-c2cccnc2)n1` [imatinib], in data set [7], the response rate entry is listed as “over 90%”.

One may read the IC50 as the concentration at which inhibition is half-maximal.
